Article PMC11292626, “5-Fluoroindole Reduces the Bacterial Burden in a Murine Model of Mycobacterium tuberculosis Infection” (ACS Omega, 2024)
Where two headings read alike, the source gives them in different places. Marks after values point to notes of the source that are not given here.

Legend:
[1] = tested on: Mycobacterium tuberculosis H37Rv Strain; assay: MIC by resazurin reduction microplate assay (REMA), H37Rv; type: cell-based; conditions: Mtb H37Rv; for MIC: REMA
[2] = Metabolic stability in rat liver microsomes; type: in vitro ADME; conditions: rat
Procedure: The compound was incubated at 37 °C in the concentration of 20 μM with rat liver microsomal fractions in PBS solution at pH 7.4 solution. As previously described,[31] rat liver microsomal fractions were seeded by centrifugation at 9.000 × g. To the supernatant containing the postmithocondrial with cytosolic and membrane-bound enzymes, 4 μM 5-FI was added and incubated at 37 °C. The interaction between the compound in the incubation mixture and the enzyme containing NADPH at 1 mg/mL concentration was measured by HPLC-MS/MS technique to determine the in vitro compound consumption by the microsomal fractions at 0, 5, 15, and 30 min reaction (incubation) time. The intrinsic compound clearance was taken as the half-life, and the disappearance was compared with the positive control, verapamil(2 μM).

[3] = tested on: Mtb H37Rv strain; assay: In vivo model of TB infection in mice; conditions: for lungs mean log10 CFU/mL ± SD / spleen weight mean g ± SD: gavage, single daily dose, 15 administrations; for toxicity in mice (in words): infected mice, up to 21 days
[4] = In vivo absorption assay: plasma concentration after gavage; conditions: mice, gavage 400 mg/kg
[5] = Chemical stability in H2O at 37 °C, open and closed system (volatility assay)
[6] = Chemical stability at pH 1.2, 7.4 and 9.1; type: physicochemical; conditions: 37 °C for 24 h
Procedure: The compounds to be tested were prepared in a 100 μM solution and incubated at 37 °C for 24 h in three solutions representing the physiologically relevant pHs to drug administration: pH 1.2 (stomach), pH 7.4 (plasma), and pH 9.2 (intestinal tissue). The compounds were quantified by HPLC-MS/MS. The chemical stability experiments were carried out in triplicates to ensure reproducibility. The results were presented as percentage, comparing the signal at time zero of the assay, considering this measure 100%, with measurements after the incubation time. Alprenolol was used as the analytical control (data not shown). The results were presented as the percentage, comparing the signal at time zero of the assay (100%) with the signal produced by concentrations after the incubation period.

[7] = Aqueous solubility at different pHs; type: physicochemical; conditions: thermodynamic from solid, 25 °C for 4 h
Procedure: The compound was weighed (1 mg) and solubilized in phosphate-buffered saline (PBS, pH 7.4), HCl 0.1 M (pH 1.2), and NH4HCO3 0.1 M (pH 9.2) to a final concentration of 1 mg/mL. The solutions were kept under stirring (250 rpm) for 4h at 37 °C. The solutions were filtered ([…] PDVA filter) and analyzed by HPLC. DMSO solution 1 mg/mL was used as the control for 100% soluble.

[8] = tested on: tryptophan transport system of Mtb H37Rv strain; conditions: tryptophan transport system of Mtb H37Rv strain ref 27; read-out: Michaelis–Menten constant (KM); cited from earlier work
[9] = Mycobacterium tuberculosis, H37RV, most frequent value of three independent assays
[10] = most frequent value of three independent assays

Structure (SMILES): N[C@@H](Cc1c[nH]c2ccc(F)cc12)C(=O)O [5-fluorotryptophan, reference compound]
- MIC ([1]; Mycobacterium tuberculosis, H37RV): > 20 µg/mL
- MIC [1, 9]: > 90 µM

Structure (SMILES): Clc1ccc2[nH]ccc2c1 [Compound 2, 5-chloroindole]
- MIC [1, 10]: >263.9 µM
- MIC [1, 9]: > 264 µM

Structure (SMILES): Brc1ccc2[nH]ccc2c1 [Compound 3, 5-bromoindole]
- MIC [1, 10]: >204.0 µM
- MIC [1, 9]: > 204 µM

Structure (SMILES): N#Cc1ccc2[nH]ccc2c1 [Compound 4]
- MIC [1, 9]: > 281 µM

Structure (SMILES): O=[N+]([O-])c1ccc2[nH]ccc2c1 [Compound 5]
- MIC [1, 9]: > 247 µM

Structure (SMILES): Oc1ccc2[nH]ccc2c1 [Compound 6]
- MIC [1, 9]: > 300 µM

Structure (SMILES): COc1ccc2[nH]ccc2c1 [Compound 7]
- MIC [1, 9]: > 272 µM

Structure (SMILES): Fc1cccc2[nH]ccc12 [Compound 8]
- reduction of activity compared to 5-FI (MIC ratio) [1]: approximately 4 fold
- MIC [1, 9]: 18.5 µM

Structure (SMILES): Fc1ccc2cc[nH]c2c1 [Compound 9]
- reduction of activity compared to 5-FI (MIC ratio) [1]: more than 15 fold
- MIC [1, 9]: 74 µM

Structure (SMILES): Fc1cccc2cc[nH]c12 [Compound 10]
- reduction of activity compared to 5-FI (MIC ratio) [1]: > 31 fold
- MIC [1, 9]: 148 µM

Structure (SMILES): Cl.Fc1ccc2[nH]ccc2c1 [Compound 11, 5-fluoroindole hydrochloride]
- CLint scaled ([2]; pH 7.4, read-out: metabolic stability Clint (intrinsic clearance)): 48 mL/min/kg
- half-life ([2]; pH 7.4, read-out: metabolic stability t1/2 (half-life)): 12 min
- lungs mean log10 CFU/mL ± SD ([3]; 10 μmol/kg): 5.80 ± 0.20 log10 CFU/mL
- spleen weight mean g ± SD ([3]; 10 μmol/kg): 0.58 ± 0.19 g
- lungs mean log10 CFU/mL ± SD ([3]; 30 μmol/kg): 6.21 ± 0.32 log10 CFU/mL
- spleen weight mean g ± SD ([3]; 30 μmol/kg): 0.55 ± 0.23 g
- lungs mean log10 CFU/mL ± SD ([3]; 100 μmol/kg): 5.86 ± 0.67 log10 CFU/mL
- spleen weight mean g ± SD ([3]; 100 μmol/kg): 0.62 ± 0.35 g
- number of CFUs in the lungs compared to the EC (early control) group (in words) ([3]; 200 μmol/kg): significantly reduced
- reduction of mycobacterial load in the lungs compared to vehicle group (in words) ([3]; 200 μmol/kg): significantly reduce
- lungs mean log10 CFU/mL ± SD ([3]; 200 μmol/kg): 3.68 ± 0.45***^, ### log10 CFU/mL
- spleen weight mean g ± SD ([3]; 200 μmol/kg): 0.28 ± 0.06 g
- reduction of CFUs in the lungs compared to vehicle group (in words) ([3]; 10, 30 and 100 μmol/kg): not able to reduce
- toxicity in mice (in words) ([3]; 200 μmol/kg, listed as 5-FI.HCL): no evidence of a toxic effect
- toxicity in mice (in words) ([3]; 200 μmol/kg, listed as 5-FI.HCl): no toxicity
- plasma concentration, mean ± SD ([4]; 15 min): 32.6 ± 14.7 µM
- plasma concentration, mean ± SD ([4]; 30 min): 82.3 ± 35.05 µM
- plasma concentrations (range) ([4]; joint range over 5-FI and 5-FI.HCl, 15 and 30 min, 400 mg/kg): 32.6 to 82.3 µM
- chemical stability, closed system ([5]; 0 h): 100 ± 0.0%
- chemical stability, open system ([5]; 0 h): 100 ± 0.0%
- chemical stability, closed system ([5]; 1 h): 95.3 ± 0.1%
- chemical stability, open system ([5]; 1 h): 97.6 ± 0.0%
- chemical stability, closed system ([5]; 2 h): 95.0 ± 0.2%
- chemical stability, open system ([5]; 2 h): 98.0 ± 0.1%
- chemical stability, closed system ([5]; 4 h): 104.6 ± 0.2%
- chemical stability, open system ([5]; 4 h): 100.3 ± 0.5%
- chemical stability, closed system ([5]; 6 h): 97.9 ± 0.1%
- chemical stability, open system ([5]; 6 h): 103.9 ± 0.1%
- chemical stability, closed system ([5]; 24 h): 110.8 ± 0.2%
- chemical stability, open system ([5]; 24 h): 113.5 ± 0.1%
- chemical stability, closed system ([5]; 48 h): 124.1 ± 0.1%
- chemical stability, open system ([5]; 48 h): 114.3 ± 0.0%
- MIC [1, 10]: 29.1 µM
- chemical stability pH 1.2 ([6]; 0.1 M HCl): 100%
- chemical stability pH 9.1 ([6]; 0.1 M NH4HCO3): 90.5%
- chemical stability pH 7.4 ([6]; PBS): 80.3%
- chemical stability at all pH values tested ([6]; pH 1.2, 7.4, 9.1): > 80%
- solubility at 4 h ([7]; pH 1.2, simulated gastric fluid, 0.1 M HCl, read-out: aqueous solubility pH 1.2): 2.3 µM
- solubility at 4 h ([7]; pH 9.1, aqueous buffer, 0.1 M NH4HCO3, read-out: aqueous solubility pH 9.1): 1110 µM
- solubility at 4 h ([7]; phosphate-buffered saline, pH 7.4, aqueous buffer, PBS, read-out: aqueous solubility pH 7.4): 600 µM

Structure (SMILES): NNC(=O)c1ccncc1 [INH, isoniazid, reference compound]
- lungs mean log10 CFU/mL ± SD ([3]; 150 μmol/kg): 2.43 ± 0.40***^, ### log10 CFU/mL
- spleen weight mean g ± SD ([3]; 150 μmol/kg): 0.23 ± 0.04 g
- MIC [1, 9]: 2.3 µM

Structure (SMILES): CO[C@H]1/C=C/O[C@@]2(C)Oc3c(C)c(O)c4c(O)c(c(/C=N/N5CCN(C)CC5)c(O)c4c3C2=O)NC(=O)/C(C)=C\C=C\[C@H](C)[C@H](O)[C@@H](C)[C@@H](O)[C@@H](C)[C@H](OC(C)=O)[C@@H]1C [RIF, rifampin, reference compound]
- MIC [1, 9]: 0.09 µM

Structure (SMILES): N[C@@H](Cc1c[nH]c2ccccc12)C(=O)O [tryptophan, L-tryptophan]
- Km [8]: 1250 µM
